From ChEMBL document CHEMBL1201862, “PubChem BioAssay data set” (2004)
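Interpolation was linear, between the two tested concentrations surrounding the appropriate level; five concentrations were tested over 48 hours in 96-well plates. GI50: concentration for 50% inhibition of growth.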 Active and inactive are the calls of the source. No stated cut-off is given here; in the data, active = GI50 up to about 1.1 µM and inactive = higher.

How the values were obtained:
Test in all cases: DTP human tumour cell line panel, 48 h
NCI-H522 = tested on: NCI-H522
HCT-116 = tested on: HCT-116
HL-60 = tested on: HL-60
CAKI-1 = tested on: CAKI-1
NCI-H460 = tested on: NCI-H460
HT-29 = tested on: HT-29
NCI-H23 = tested on: NCI-H23
HOP-62 = tested on: HOP-62
SK-MEL-28 = tested on: SK-MEL-28
KM12 = tested on: KM12
SR = tested on: SR
HOP-92 = tested on: HOP-92
OVCAR-3 = tested on: OVCAR-3
NCI-H226 = tested on: NCI-H226
HCT-15 = tested on: HCT-15
SW-620 = tested on: SW-620
SF-539 = tested on: SF-539
NCI/ADR-RES = tested on: NCI/ADR-RES
PC-3 = tested on: PC-3
MDA-N = tested on: MDA-N

Compound	GI50 (NCI-H522)	GI50 (HCT-116)	GI50 (HL-60)	GI50 (CAKI-1)	GI50 (NCI-H460)	GI50 (HT-29)	GI50 (NCI-H23)	GI50 (HOP-62)	GI50 (SK-MEL-28)	GI50 (KM12)	GI50 (SR)	GI50 (HOP-92)	GI50 (OVCAR-3)	GI50 (NCI-H226)	GI50 (HCT-15)	GI50 (SW-620)	GI50 (SF-539)	GI50 (NCI/ADR-RES)	GI50 (PC-3)	GI50 (MDA-N)
COc1cccc(/C=N/C23CC4CC(CC(C4)C2)C3)c1	> 100 µM (inactive)	> 100 µM (inactive)	> 100 µM (inactive)	> 100 µM (inactive)	> 100 µM (inactive)	> 100 µM (inactive)	> 100 µM (inactive)	> 100 µM (inactive)	> 100 µM (inactive)	> 100 µM (inactive)	> 100 µM (inactive)	> 100 µM (inactive)	> 100 µM (inactive)	> 100 µM (inactive)	> 100 µM	> 100 µM (inactive)	> 100 µM (inactive)			
COc1cnc2oc3ccc(O)cc3c2c1-c1ccccc1	> 100 µM (inactive)	15.2 µM (inactive)	> 100 µM (inactive)	> 100 µM (inactive)	> 100 µM (inactive)	85.1 µM (inactive)	44.7 µM (inactive)	24 µM (inactive)	> 100 µM (inactive)	83.2 µM (inactive)		> 100 µM (inactive)	4.27 µM (inactive)		> 100 µM	> 100 µM (inactive)	> 100 µM (inactive)	30.3 µM (inactive)	> 100 µM (inactive)	
Brc1ccc(C2SCc3nc4ccccc4n32)cc1 (stereo unspecified)	2.3 µM (inactive)	6.3 µM (inactive)	3.19 µM (inactive)	14.4 µM (inactive)	12.9 µM (inactive)	7.78 µM (inactive)	2.75 µM (inactive)	7.57 µM (inactive)	4.72 µM (inactive)	5.98 µM (inactive)	7.6 µM (inactive)	1.06 µM (active)	4.83 µM (inactive)	17.4 µM (inactive)	11.3 µM	13.3 µM (inactive)	18.5 µM (inactive)			
C#CCn1c(=O)c2cc(OC)c(OC)cc2n(CC#C)c1=O	> 10 µM (inactive)	> 10 µM (inactive)		> 10 µM (inactive)	> 10 µM (inactive)	> 10 µM (inactive)	> 10 µM (inactive)	> 10 µM (inactive)	> 10 µM (inactive)	> 10 µM (inactive)		> 10 µM (inactive)	> 10 µM (inactive)	> 10 µM (inactive)	> 10 µM	> 10 µM (inactive)	> 10 µM (inactive)	> 10 µM (inactive)	> 10 µM (inactive)	> 10 µM (inactive)
O=C(NCCn1ccnn1)Nc1ccccc1	> 100 µM (inactive)		> 100 µM (inactive)	> 100 µM (inactive)	> 100 µM (inactive)	> 100 µM (inactive)	> 100 µM (inactive)	> 100 µM (inactive)	> 100 µM (inactive)	> 100 µM (inactive)	> 100 µM (inactive)	> 100 µM (inactive)			> 100 µM	> 100 µM (inactive)		> 100 µM (inactive)	> 100 µM (inactive)	
CCOc1ccc(N(CC(=O)N2CC(=O)Nc3cc(C)c(C)cc32)C(C)=O)cc1	> 100 µM (inactive)	> 100 µM (inactive)	> 100 µM (inactive)	> 100 µM (inactive)	> 100 µM (inactive)	> 100 µM (inactive)	> 100 µM (inactive)	> 100 µM (inactive)	> 100 µM (inactive)	> 100 µM (inactive)	> 100 µM (inactive)	83.2 µM (inactive)	63.8 µM (inactive)	> 100 µM (inactive)	> 100 µM	> 100 µM (inactive)	> 100 µM (inactive)			
COC(=O)CCCC(=O)NC1=C(Nc2ccccc2)C(=O)c2ccccc2C1=O	16.9 µM (inactive)	16.6 µM (inactive)	20.5 µM (inactive)	20.1 µM (inactive)	16.6 µM (inactive)		10.6 µM (inactive)		16.7 µM (inactive)	5.24 µM (inactive)	30.2 µM (inactive)	21.8 µM (inactive)	12.6 µM (inactive)		15.1 µM	25.2 µM (inactive)	18.6 µM (inactive)	18.2 µM (inactive)		3.89 µM (inactive)
CC(=O)c1ccc(-c2oc(-c3ccccc3)cc2-c2ccc3c(c2)OCO3)s1		> 100 µM (inactive)	1.02 µM (active)	2.42 µM (inactive)	68.5 µM (inactive)	> 100 µM (inactive)	19.1 µM (inactive)	> 100 µM (inactive)			> 100 µM (inactive)	> 100 µM (inactive)	> 100 µM (inactive)	> 100 µM (inactive)		> 100 µM (inactive)	> 100 µM (inactive)	49.7 µM (inactive)		
O=C1C(=Cc2ccc(O)cc2)N=C(c2ccccc2)N1n1c(-c2ccccc2)nc2ccccc2c1=O	50 µM (inactive)	> 100 µM (inactive)	40.6 µM (inactive)	> 100 µM (inactive)		72.8 µM (inactive)	71.6 µM (inactive)	> 100 µM (inactive)	88.9 µM (inactive)	> 100 µM (inactive)				> 100 µM (inactive)	38.9 µM	> 100 µM (inactive)	> 100 µM (inactive)		34.8 µM (inactive)	> 100 µM (inactive)
